# Test results from patent US20240336654A1, “ANTIMICROBIAL PEPTIDOMIMETICS” (SPEXIS AG, priority 2021, published 2024).
# Where a SMILES comes first, the peptide text is derived from it. Bridges are numbered along the chain shown (N, C = ends). [ ]: non-standard residue; d: D form. Hyp = O=C(O)[C@@H]1C[C@@H](O)CN1; Cit = NC(=O)NCCC[C@H](N)C(=O)O; Pen = CC(C)(S)[C@H](N)C(=O)O; dDab = NCC[C@@H](N)C(=O)O; Dab = NCC[C@H](N)C(=O)O
# Key:
# Type in all cases: cell-based
# [1] = system: Escherichia coli ATCC 25922; settings: ATCC 25922
# Procedure, shortened: (§1)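 MICs were determined by CLSI broth microdilution in cation-adjusted Mueller-Hinton II broth with about 5×10^5 CFU/mL inoculum. Peptides were tested in two-fold serial dilutions with 0.002% polysorbate 80 final. MIC in μg/mL is the lowest concentration with no visible growth after 18-20 h at 35 °C.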
# [2] = system: Escherichia coli MCR-1 Af 45; settings: MCR-1 Af 45
# Procedure, shortened: as §1
# [3] = system: Klebsiella pneumoniae SSI3010; settings: SSI3010
# Procedure, shortened: as §1
# [4] = system: human red blood cells (hRBC); settings: red cells of human, 1 h, 200 μg/mL
# Procedure, shortened: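 Percent hemolysis derived from OD540 of supernatants relative to full lysis by 2.5% Triton X-100 (PBS baseline). Washed fresh human erythrocytes (20% v/v) were exposed to 200 μg/mL peptide for 1 h at 37 °C with shaking.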
SMILES,Escherichia coli ATCC 25922 MIC [1],Escherichia coli MCR-1 Af45 MIC [2],Klebsiella pneumoniae SSI3010 MIC [3],Hemolysis at 0.2 g/L [4]
"CC[C@H](C)[C@H](NC(=O)[C@@H]1C[C@@H](O)CN1C(=O)[C@@H](N)C(C)C)C(=O)N[C@@H]1C(=O)N[C@@H](Cc2ccc(O)cc2)C(=O)N[C@@H](CO)C(=O)N[C@@H](CC(N)=O)C(=O)N[C@@H](CCCNC(=N)N)C(=O)N[C@@H](CCN)C(=O)N[C@@H]([C@@H](C)O)C(=O)N[C@H](CCN)C(=O)N[C@@H](CCCNC(N)=O)C(=O)N[C@@H](CCN)C(=O)N[C@@H](CCN)C(=O)N[C@H](C(=O)N[C@@H](Cc2ccc(O)cc2)C(=O)O)CSSC1(C)C [Example 40, Val-Hyp-Ile-Pen-Tyr-Ser-Asn-Arg-Dab-Thr-^DDab-Cit-Dab-Dab-Cys-Tyr] (H-V[Hyp]I[Pen]YSNR[Dab]T[dDab][Cit][Dab][Dab]CY-OH; disulfide 4-15)",0.25 µg/mL,0.125 µg/mL,0.5 µg/mL,<1%
"CC[C@H](C)[C@H](NC(=O)[C@@H]1C[C@@H](O)CN1C(=O)[C@@H](N)C(C)C)C(=O)N[C@@H]1C(=O)N[C@@H](Cc2ccc(O)cc2)C(=O)N[C@@H](CO)C(=O)N[C@@H](CC(N)=O)C(=O)N[C@@H](CCCNC(=N)N)C(=O)N[C@@H](CCN)C(=O)N[C@@H]([C@@H](C)O)C(=O)N[C@H](CCN)C(=O)N[C@@H](Cc2ccc(O)cc2)C(=O)N[C@@H](CCN)C(=O)N[C@@H](CCN)C(=O)N[C@H](C(=O)N[C@@H](Cc2ccc(O)cc2)C(=O)O)CSSC1(C)C [Example 41, Val-Hyp-Ile-Pen-Tyr-Ser-Asn-Arg-Dab-Thr-^DDab-Tyr-Dab-Dab-Cys-Tyr] (H-V[Hyp]I[Pen]YSNR[Dab]T[dDab]Y[Dab][Dab]CY-OH; disulfide 4-15)",0.125 µg/mL,0.125 µg/mL,0.25 µg/mL,<1%
"CC[C@H](C)[C@@H]1NC(=O)[C@@H](CCN)NC(=O)[C@H]([C@@H](C)O)NC(=O)[C@H](CCN)NC(=O)[C@H](CCCNC(=N)N)NC(=O)[C@H](CC(N)=O)NC(=O)[C@H](CO)NC(=O)[C@H](Cc2ccc(O)cc2)NC(=O)[C@@H](NC(=O)[C@@H](NC(=O)[C@@H]2C[C@@H](O)CN2C(=O)[C@@H](N)C(C)C)[C@@H](C)CC)C(C)(C)SSC[C@@H](C(=O)N[C@@H](Cc2ccc(O)cc2)C(=O)O)NC(=O)[C@H](CCN)NC(=O)[C@H](CCN)NC1=O [Example 42, Val-Hyp-Ile-Pen-Tyr-Ser-Asn-Arg-Dab-Thr-^DDab-Ile-Dab-Dab-Cys-Tyr] (H-V[Hyp]I[Pen]YSNR[Dab]T[dDab]I[Dab][Dab]CY-OH; disulfide 4-15)",0.125 µg/mL,0.125 µg/mL,0.25 µg/mL,<1%
"CC[C@H](C)[C@H](NC(=O)[C@@H]1C[C@@H](O)CN1C(=O)[C@@H](N)C(C)C)C(=O)N[C@@H]1C(=O)N[C@@H](Cc2ccc(O)cc2)C(=O)N[C@@H](CO)C(=O)N[C@@H](CC(N)=O)C(=O)N[C@@H](CCCNC(=N)N)C(=O)N[C@@H](CCN)C(=O)N[C@@H]([C@@H](C)O)C(=O)N[C@H](CCN)C(=O)N[C@@H](CC(N)=O)C(=O)N[C@@H](CCN)C(=O)N[C@@H](CCN)C(=O)N[C@H](C(=O)N[C@@H](Cc2ccc(O)cc2)C(=O)O)CSSC1(C)C [Example 43, Val-Hyp-Ile-Pen-Tyr-Ser-Asn-Arg-Dab-Thr-^DDab-Asn-Dab-Dab-Cys-Tyr] (H-V[Hyp]I[Pen]YSNR[Dab]T[dDab]N[Dab][Dab]CY-OH; disulfide 4-15)",0.25 µg/mL,0.25 µg/mL,0.5 µg/mL,<1%
